{"source": "patent US8815862B2", "about": "“Co-crystal intermediates of rosuvastatin and methods of using same” (F.I.S. Fabbrica Italiana Sintetici S.p.A., priority 2011, dated 2014)", "key": {"[1]": {"details": "cited from earlier work"}, "[2]": {"test": "Stability study at 40° C. under vacuum (impurity/lactone content)", "assay_type": "physicochemical", "details": "for lactone content after storage: 20 and 40 hours (final value); for lactone impurity content of starting product: before storage; for chemical stability compared to Rosuvastatin acid: 40 h, hemihydrate", "method": "Stability Studies at 40° C. Under Vacuum of Co-crystal Rosuvastatin 2-Aminopyrimidine Hemihydrates Compared to Rosuvastatin\nThe co-crystal has only 3 impurities at 5.651, 5.948 and 6.674 (lactone) min.\nFor RSV, only some impurities (impurities in common with the co-crystal or impurities with a significant variation) were studied.\nStorage conditions: 40° C. under vacuum for 20 and 40 hours."}, "[3]": {"test": "Solubility in a series of solvents at room temperature", "assay_type": "physicochemical", "excerpt": "The solubility of co-crystal Rosuvastatin 2-aminopyrimidine hemihydrate in a series of solvents at room temperature is provided in Table 2 given below: […]"}, "[4]": {"test": "Humidity stability, stored at room temperature at RH 100% (XRPD)", "assay_type": "physicochemical", "details": "RH of 100%, 24 h", "excerpt": "Moreover, the solid maintains its good handling properties."}, "[5]": {"test": "Polymorphism observed during screening and purification studies", "assay_type": "physicochemical", "details": "during screening and studies of the purification of Rosuvastatin", "excerpt": "Co-crystals of the present invention have a relative lack of polymorphism due to the higher complexity of the crystal structure: polymorphs of co-crystal Rosuvastatin 2-aminopyrimidine hemihydrate were not observed during screening and studies of the purification of Rosuvastatin. In contrast, form salts of Rosuvastatin amines having different polymorphs."}, "[6]": {"test": "Solid-state stability, stored at room temperature in a sealed vial (XRPD)", "assay_type": "physicochemical", "details": "3 weeks"}, "[7]": {"details": "40° C. under vacuum, 20 and 40 hours"}}, "data": [{"compound": "CC(C)c1nc(N(C)S(C)(=O)=O)nc(-c2ccc(F)cc2)c1/C=C/[C@@H](O)C[C@@H](O)CC(=O)O", "note": "[RSV, (E)-(3R,5S)-7-[4-(4-Fluorophenyl)-6-isopropyl-2-[(methylsulfonyl)(methyl)amino]pyrimidin-5-yl]-3,5-dihydroxyhept-6-enoic acid, reference compound]", "values": [{"measurement": "pKa", "setting": "[1]", "result": 4.6}, {"measurement": "change of other impurities on storage", "setting": "[2]; [7]", "result": "increased with time"}, {"measurement": "lactone content after storage", "setting": "[2]; 40° C. under vacuum", "result": 39.84, "unit": "%"}, {"measurement": "lactone impurity content of starting product", "setting": "[2]", "result": 17.267, "unit": "%"}]}, {"compound": "c1ccc2nccnc2c1", "note": "[quinoxaline]", "values": [{"measurement": "pKa", "setting": "[1]", "result": 0.56}]}, {"compound": "Rosuvastatin 2-aminopyrimidine hemihydrate", "values": [{"measurement": "solubility in ACN", "setting": "[3]; ACN", "result": 14, "unit": "vol."}, {"measurement": "solubility in AcOEt", "setting": "[3]; AcOEt", "result": 20, "unit": "vol."}, {"measurement": "solubility in Acetone", "setting": "[3]; Acetone", "result": 4, "unit": "vol."}, {"measurement": "solubility in EtOH", "setting": "[3]; EtOH", "result": 10, "unit": "vol."}, {"measurement": "solubility in MIK", "setting": "[3]; MIK", "result": 45, "unit": "vol."}, {"measurement": "solubility in MeOH", "setting": "[3]; MeOH", "result": 3, "unit": "vol."}, {"measurement": "solubility in THF", "setting": "[3]; THF", "result": 2, "unit": "vol."}, {"measurement": "XRPD / crystallinity after humidity exposure", "setting": "[4]", "result": "same XRPD without loss of crystallinity"}, {"measurement": "polymorphs observed", "setting": "[5]", "result": "not observed"}, {"measurement": "change of other impurities on storage", "setting": "[2]; [7]", "result": "negligible"}, {"measurement": "new impurities on storage", "setting": "[2]; [7]", "result": "No new impurities were observed"}, {"measurement": "lactone content after storage", "setting": "[2]; 40° C. under vacuum", "result": 0.091, "unit": "%"}, {"measurement": "chemical stability compared to Rosuvastatin acid", "setting": "[2]; 40° C. under vacuum, listed as Co-crystal Rosuvastatin 2-aminopyrimidine hemihydrate", "result": "higher than the Rosuvastatin acid"}, {"measurement": "chemical stability compared to Rosuvastatin acid", "setting": "[2]; 40° C. under vacuum, listed as co-crystal", "result": "higher than the stability of the Rosuvastatin acid"}, {"measurement": "lactone impurity content of starting product", "setting": "[2]", "result": 0.036, "unit": "%"}, {"measurement": "crystalline transformation or loss of crystallinity (XRPD)", "setting": "[6]", "result": "does not show crystalline transformation (same XRPD) or loss of crystallinity"}]}]}
